Test results published in patent US10059689B2, “Substituted heteroaryl compounds and methods of use” (Sunshine Lake Pharma Co., Ltd., priority 2014, dated 2018).

Columns and labels:
FLT3 (h) = biological target: T1, FLT3 (h) (Homo sapiens, UniProt P36888); test: FLT3 (h) kinase assay; assay type: biochemical
T1 construct: purchased Millipore UK Ltd (contract assay service)
T1 sequence (P36888 27-993): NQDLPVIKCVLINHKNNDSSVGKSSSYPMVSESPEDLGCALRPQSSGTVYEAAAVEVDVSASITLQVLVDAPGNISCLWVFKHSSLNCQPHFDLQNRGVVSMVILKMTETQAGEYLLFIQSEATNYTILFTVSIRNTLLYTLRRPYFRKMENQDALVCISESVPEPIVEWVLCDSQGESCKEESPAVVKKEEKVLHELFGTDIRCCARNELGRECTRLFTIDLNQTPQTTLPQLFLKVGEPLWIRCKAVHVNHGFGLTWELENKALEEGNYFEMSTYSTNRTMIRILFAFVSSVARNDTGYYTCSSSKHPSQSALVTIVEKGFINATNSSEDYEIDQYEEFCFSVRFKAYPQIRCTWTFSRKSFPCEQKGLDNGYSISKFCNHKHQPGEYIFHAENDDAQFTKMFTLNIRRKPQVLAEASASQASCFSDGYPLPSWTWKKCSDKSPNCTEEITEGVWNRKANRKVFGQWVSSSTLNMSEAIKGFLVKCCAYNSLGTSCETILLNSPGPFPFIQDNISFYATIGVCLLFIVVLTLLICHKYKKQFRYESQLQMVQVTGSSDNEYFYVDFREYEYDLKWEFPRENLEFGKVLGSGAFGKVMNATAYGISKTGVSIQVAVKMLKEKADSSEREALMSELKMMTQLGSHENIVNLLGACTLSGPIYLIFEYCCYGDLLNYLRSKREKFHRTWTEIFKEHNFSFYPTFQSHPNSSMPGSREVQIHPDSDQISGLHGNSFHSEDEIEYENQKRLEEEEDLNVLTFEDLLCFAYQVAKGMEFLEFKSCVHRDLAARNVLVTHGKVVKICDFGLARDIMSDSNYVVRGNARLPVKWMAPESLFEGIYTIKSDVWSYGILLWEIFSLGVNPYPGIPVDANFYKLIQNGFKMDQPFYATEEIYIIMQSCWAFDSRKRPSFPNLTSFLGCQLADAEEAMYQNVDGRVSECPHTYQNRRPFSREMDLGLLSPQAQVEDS
Description: Kinase assays can be performed by measurement of incorporation of γ-33P ATP into immobilized myelin basic protein (MBP). High binding white 384 well plates (Greiner) are coated with MBP (Sigma #M-1891) by incubation of 60 μL/well of 20 μg/mL MBP in Tris-buffered saline (TBS; 50 mM Tris pH 8.0, 138 mM NaCl, 2.7 mM KCl) for 24 h at 4° C. Plates are washed 3× with 100 μL TBS. Kinase reactions are carried out in a total volume of 34 μL in kinase buffer (according to the need to make, for example, 5 mM Hepes pH 7.6, 15 mM NaCl, 0.01% bovine gamma globulin (Sigma #I-5506), 10 mM MgCl2, 1 mM DTT, 0.02% TritonX-100). Compound dilutions are performed in DMSO and added to assay wells to a final DMSO concentration of 1%. Each data point is measured in duplicate, and at least two duplicate assays are performed for each individual compound determination. Enzyme is added to final concentrations of 10 nM or 20 nM, for example. A mixture of unlabeled ATP and γ-33P ATP is added to start the reaction (2×10^6 cpm of γ-33P ATP per well (3000 Ci/mmole) and 10 μM unlabeled ATP, typically. The reactions are carried out for 1 h at room temperature with shaking Plates are washed 7× with TBS, followed by the addition of 50 μL/well scintillation fluid (Wallac). Plates are read using a Wallac Trilux counter. This is only one format of such assays; various other formats are possible, as known to one skilled in the art.
(§1) The above assay procedure can be used to determine the IC50 for inhibition and/or the inhibition constant, Ki. The IC50 is defined as the concentration of compound required to reduce the enzyme activity by 50% under the condition of the assay. The IC50 value is estimated by preparing a 10 point curve using a ½ log dilution series (for example, a typical curve may be prepared using the following compound concentrations: 3 μM, 1 μM, 0.3 μM, 0.1 μM, 0.03 μM, 0.01 μM, 0.003 μM, 0.001 μM, 0.0003 μM and 0 μM).
(§2) FLT3 (h) is incubated with 8 mM MOPS pH 7.0, 0.2 mM EDTA, 50 μM EAIYAAPFAKKK, 10 mM MgAcetate and [γ-^33P-ATP] (specific activity approx. 500 cpm/pmol, concentration as required). The reaction is initiated by the addition of the MgATP mix. After incubation for 40 minutes at room temperature, the reaction is stopped by the addition of 3% phosphoric acid solution. 10 μL of the reaction is then spotted onto a P30 filtermat and washed three times for 5 minutes in 75 mM phosphoric acid and once in methanol prior to drying and scintillation counting.
(§3) The kinase assays described herein were performed at Millipore UK Ltd, Dundee Technology Park, Dundee DD2 1SW, UK.

JAK2 (h) = biological target: T2, JAK2 (h) (Homo sapiens, UniProt O60674); test: JAK2 (h) kinase assay; assay type: biochemical
T2 construct: purchased Millipore UK Ltd (contract assay service)
T2 sequence (O60674 whole entry): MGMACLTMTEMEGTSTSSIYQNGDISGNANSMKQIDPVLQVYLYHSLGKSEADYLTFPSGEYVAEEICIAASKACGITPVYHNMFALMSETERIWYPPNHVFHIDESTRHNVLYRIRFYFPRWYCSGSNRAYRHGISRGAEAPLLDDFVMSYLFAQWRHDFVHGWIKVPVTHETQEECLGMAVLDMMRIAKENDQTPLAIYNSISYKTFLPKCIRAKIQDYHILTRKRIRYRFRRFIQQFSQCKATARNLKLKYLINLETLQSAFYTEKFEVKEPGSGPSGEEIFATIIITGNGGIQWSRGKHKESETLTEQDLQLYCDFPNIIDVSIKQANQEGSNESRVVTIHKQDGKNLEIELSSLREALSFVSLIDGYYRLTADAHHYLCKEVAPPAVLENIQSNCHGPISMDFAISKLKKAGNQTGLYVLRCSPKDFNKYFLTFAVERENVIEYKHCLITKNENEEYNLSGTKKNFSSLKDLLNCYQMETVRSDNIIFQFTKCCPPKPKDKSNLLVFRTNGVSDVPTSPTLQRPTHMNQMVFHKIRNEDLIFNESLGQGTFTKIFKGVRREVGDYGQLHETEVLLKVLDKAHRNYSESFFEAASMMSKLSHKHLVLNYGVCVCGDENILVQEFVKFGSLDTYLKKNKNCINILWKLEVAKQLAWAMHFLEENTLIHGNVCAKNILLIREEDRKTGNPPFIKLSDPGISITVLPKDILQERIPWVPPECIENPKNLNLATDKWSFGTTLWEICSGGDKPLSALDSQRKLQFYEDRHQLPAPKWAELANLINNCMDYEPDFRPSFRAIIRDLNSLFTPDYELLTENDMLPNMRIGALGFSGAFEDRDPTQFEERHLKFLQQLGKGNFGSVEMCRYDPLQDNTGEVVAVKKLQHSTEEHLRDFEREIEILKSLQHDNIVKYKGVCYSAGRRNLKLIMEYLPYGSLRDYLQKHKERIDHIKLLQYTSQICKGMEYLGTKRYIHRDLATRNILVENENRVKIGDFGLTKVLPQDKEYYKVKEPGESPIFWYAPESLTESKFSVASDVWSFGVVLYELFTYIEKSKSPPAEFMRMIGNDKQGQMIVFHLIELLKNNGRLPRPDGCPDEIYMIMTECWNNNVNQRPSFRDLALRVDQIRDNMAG
Description: as §1
as §2, with “JAK2 (h)” for “FLT3 (h)”, “EDTA, 100” for “EDTA, 50”, “μM […],” for “μM EAIYAAPFAKKK,”
as §3

Compound | IC50 (FLT3 (h)) | IC50 (JAK2 (h))
Cn1cc(Nc2ncc(Cl)c(NC3CCN(c4ccc(C#N)cn4)CC3)n2)cn1 [Ex. 1, 6-(4-((5-chloro-2-((1-methyl-1H-pyrazol-4-yl)amino)pyrimidin-4-yl)amino)piperidin-1-yl)nicotinonitrile] | 6 nM | 0.5 nM
Cc1c2ccc(Nc3ncc(Cl)c(NC4CCN(c5ccc(C#N)cn5)CC4)n3)cc2nn1C [Ex. 4] | 151 nM | 2 nM
CN(c1nc(Nc2cnn(C)c2)ncc1Cl)C1CCN(c2ccc(C#N)cn2)CC1 [Ex. 5, 6-(4-((5-chloro-2-((1-methyl-1H-pyrazol-4-yl)amino)pyrimidin-4-yl) (methyl)amino)piperidin-1-yl)nicotinonitrile] | 42 nM | 17 nM
Cc1nn(C)cc1Nc1ncc(Cl)c(NC2CCN(c3ccc(C#N)cn3)CC2)n1 [Ex. 10, 6-(4-((5-chloro-2-((1,3-dimethyl-1H-pyrazol-4-yl)amino)pyrimidin-4-yl)amino)piperidin-1-yl)nicotinonitrile] | 9 nM | 1 nM
Cc1nn(C)cc1Nc1ncc(Cl)c(NC2CCN(c3ccc(C#N)nn3)CC2)n1 [Ex. 11, 6-(4-((5-chloro-2-((1,3-dimethyl-1H-pyrazol-4-yl)amino)pyrimidin-4-yl)amino)piperidin-1-yl)pyridazine-3-carbonitrile] | 21 nM | 2 nM
Cc1c2ccc(Nc3ncc(Cl)c(NC4CCN(c5ccc(C#N)nn5)CC4)n3)cc2nn1C [Ex. 12, 6-(4-((5-chloro-2-((2,3-dimethyl-2H-indazol-6-yl)amino)pyrimidin-4-yl)amino)piperidin-1-yl)pyridazine-3-carbonitrile] | 4 nM | < 0.3 nM
Cc1cc(Nc2ncc(Cl)c(NC3CCN(c4ccc(C#N)nn4)CC3)n2)nn1C [Ex. 13, 6-(4-((5-chloro-2-((1,5-dimethyl-1H-pyrazol-3-yl)amino)pyrimidin-4-yl)amino)piperidin-1-yl)pyridazine-3-carbonitrile] | 48 nM | 1 nM
